According to patent US20030181527A1, “Novel formulations of alpha-2,4-disulfophenyl-n-tert-butylnitrone” (priority 2000, published 2003):

Legend:
Format in all cases: physicochemical
[1] = Effect of chelator resin Chelex-100 on stability of concentrated aqueous solution; details: 100 mg/ml, 5.3 mM phosphate, pH 8.0
Experimental: A concentrated aqueous solution of α-(2,4-disulfophenyl)-N-tert-butylnitrone disodium salt (100 mg/ml) and disodium hydrogen phosphate (5.3 mM) at pH 8.0 was passed overnight through a column of the chelator resin, Chelex-100®. The resulting solution was placed in portions (8 ml) into 10 ml glass vials which were then sealed. The starting level of the aldehyde (II) was 0.20%. After two months at +40° C. and 75% relative humidity the concentration of the aldehyde (II) had increased to 2.3%. In a control experiment where the treatment with the resin was omitted, the level of the aldehyde (II) increased to 3.0%.

[2] = Stability versus concentration, vial size and headspace gas at +40° C. (Table 6)
Experimental: For the 10 ml vial size, the fill volume was 10.7 ml; and for the 20 ml vial size, the fill volume was 20.7 ml.

[3] = Stability with air or nitrogen filled headspaces (Table 5); details: 400 mg/ml
Experimental: A 400 mg/ml concentrate of α-(2,4-disulfophenyl)-N-tert-butylnitrone disodium salt was prepared by adding α-(2,4-disulfophenyl)-N-tert-butylnitrone disodium salt (1500 g) to water for injection (2200 ml) containing dissolved disodium hydrogen phosphate dihydrate (3.51 g). The solution was then adjusted to pH 8.5 by the addition of 2M sodium hydroxide solution and then water for injection was added to give a final volume of 3750 ml. After preparation, the solution was purged with nitrogen for 90 minutes and then placed in 10 ml glass vials with a fill volume of 7.7 ml. Before stoppering the vials, the headspace was purged with nitrogen. […] The vials were stored either at +5° C. at ambient humidity or at +25° C. and 60% relative humidity.
A second batch of 400 mg/ml concentrate of α-(2,4-disulfophenyl)-N-tert-butylnitrone disodium salt buffered with 50 mM phosphate buffer was treated identically except that the headspace was filled with air not nitrogen and the fill volume was 10.5 ml.

Concentration of the aldehyde (II) ([1]; Chelex-100 treated, 2 months +40° C./75% RH): 2.3%
Starting level of the aldehyde (II) ([1]; Chelex-100 treated, start): 0.20%
Level of the aldehyde (II) ([1]; resin treatment omitted, 2 months +40° C./75% RH): 3.0%
Amount of Aldehyde (II) ([2]; 50 mg/ml, 10 ml vial, N2 in headspace, 2 months at +40° C.): 1.4 w/w %
Amount of Aldehyde (II) ([2]; 50 mg/ml, 10 ml vial, N2 in headspace, 3 months at +40° C.): 1.5 w/w %
Amount of Aldehyde (II) ([2]; 50 mg/ml, 10 ml vial, N2 in headspace, 6 months at +40° C.): 1.7 w/w %
Amount of Aldehyde (II) ([2]; 50 mg/ml, 10 ml vial, N2 in headspace, initial): 0.2 w/w %
Amount of Aldehyde (II) ([2]; 50 mg/ml, 10 ml vial, air in headspace, 2 months at +40° C.): 2.8 w/w %
Amount of Aldehyde (II) ([2]; 50 mg/ml, 10 ml vial, air in headspace, 3 months at +40° C.): 3.3 w/w %
Amount of Aldehyde (II) ([2]; 50 mg/ml, 10 ml vial, air in headspace, 6 months at +40° C.): 3.5 w/w %
Amount of Aldehyde (II) ([2]; 50 mg/ml, 10 ml vial, air in headspace, initial): 0.2 w/w %
Amount of Aldehyde (II) ([2]; 100 mg/ml, 10 ml vial, air in headspace, 2 months at +40° C.): 1.8 w/w %
Amount of Aldehyde (II) ([2]; 100 mg/ml, 10 ml vial, air in headspace, initial): 0.2 w/w %
Amount of Aldehyde (II) ([2]; 400 mg/ml, 10 ml vial, N2 in headspace, 2 months at +40° C.): 0.5 w/w %
Amount of Aldehyde (II) ([2]; 400 mg/ml, 10 ml vial, N2 in headspace, 3 months at +40° C.): 0.6 w/w %
Amount of Aldehyde (II) ([2]; 400 mg/ml, 10 ml vial, N2 in headspace, initial): 0.3 w/w %
Amount of Aldehyde (II) ([2]; 400 mg/ml, 10 ml vial, air in headspace, 2 months at +40° C.): 0.8 w/w %
Amount of Aldehyde (II) ([2]; 400 mg/ml, 10 ml vial, air in headspace, 3 months at +40° C.): 0.9 w/w %
Amount of Aldehyde (II) ([2]; 400 mg/ml, 10 ml vial, air in headspace, initial): 0.3 w/w %
Amount of Aldehyde (II) ([2]; 400 mg/ml, 20 ml vial, N2 in headspace, 2 months at +40° C.): 0.5 w/w %
Amount of Aldehyde (II) ([2]; 400 mg/ml, 20 ml vial, N2 in headspace, 3 months at +40° C.): 0.5 w/w %
Amount of Aldehyde (II) ([2]; 400 mg/ml, 20 ml vial, N2 in headspace, initial): 0.3 w/w %
Amount of Aldehyde (II) ([2]; 400 mg/ml, 20 ml vial, air in headspace, 2 months at +40° C.): 0.7 w/w %
Amount of Aldehyde (II) ([2]; 400 mg/ml, 20 ml vial, air in headspace, 3 months at +40° C.): 0.8 w/w %
Amount of Aldehyde (II) ([2]; 400 mg/ml, 20 ml vial, air in headspace, initial): 0.3 w/w %
Amount of Aldehyde (II) ([3]; 50 mM phosphate, air-filled headspace, fill 10.5 ml, +5° C., 0 months): 0.3 area %
Amount of Aldehyde (II) ([3]; 50 mM phosphate, air-filled headspace, fill 10.5 ml, +5° C., 3 months): 0.3 area %
Amount of Aldehyde (II) ([3]; 50 mM phosphate, air-filled headspace, fill 10.5 ml, +5° C., 6 months): 0.5 area %
Amount of Aldehyde (II) ([3]; 50 mM phosphate, air-filled headspace, fill 10.5 ml, +5° C., 12 months): 0.4 area %
Amount of Aldehyde (II) ([3]; 50 mM phosphate, air-filled headspace, fill 10.5 ml, +25° C./60% RH, 0 months): 0.3 area %
Amount of Aldehyde (II) ([3]; 50 mM phosphate, air-filled headspace, fill 10.5 ml, +25° C./60% RH, 3 months): 0.7 area %
Amount of Aldehyde (II) ([3]; 50 mM phosphate, air-filled headspace, fill 10.5 ml, +25° C./60% RH, 6 months): 1.0 area %
Amount of Aldehyde (II) ([3]; 50 mM phosphate, air-filled headspace, fill 10.5 ml, +25° C./60% RH, 12 months): 0.7 area %
Amount of Aldehyde (II) ([3]; pH 8.5, nitrogen-filled headspace, fill 7.7 ml, +5° C., 0 months): 0.2 area %
Amount of Aldehyde (II) ([3]; pH 8.5, nitrogen-filled headspace, fill 7.7 ml, +5° C., 3 months): 0.2 area %
Amount of Aldehyde (II) ([3]; pH 8.5, nitrogen-filled headspace, fill 7.7 ml, +5° C., 6 months): 0.2 area %
Amount of Aldehyde (II) ([3]; pH 8.5, nitrogen-filled headspace, fill 7.7 ml, +5° C., 12 months): 0.3 area %
Amount of Aldehyde (II) ([3]; pH 8.5, nitrogen-filled headspace, fill 7.7 ml, +25° C./60% RH, 0 months): 0.2 area %
Amount of Aldehyde (II) ([3]; pH 8.5, nitrogen-filled headspace, fill 7.7 ml, +25° C./60% RH, 3 months): 0.4 area %
Amount of Aldehyde (II) ([3]; pH 8.5, nitrogen-filled headspace, fill 7.7 ml, +25° C./60% RH, 6 months): 0.3 area %
Structure (SMILES): CC(C)(C)[N+]([O-])=Cc1ccc(S(=O)(=O)[O-])cc1S(=O)(=O)[O-].[Na+].[Na+] [α-(2,4-disulfophenyl)-N-tert-butylnitrone disodium salt]
